Usually IC50 stands for the concentration at which inhibition is half-maximal.

Structures are written as SMILES. A value given as a limit tells only on which side of the number the result lay.

Experimental findings from patent US20250152585A1, “PHARMACEUTICAL COMPOUND” (Duke Street Bio Limited, priority 2022, published 2025) are described below.

In the first experiment the target is T1, full length N-terminally FLAG-tagged PARP1 (Homo sapiens, UniProt P09874). Put plainly: PARP1 probe displacement HTRF assay. Particulars: PARP1 over PARP2, ratio Kd (PARP2)/Kd (PARP1), probe displacement HTRF.
T1 sequence (P09874 whole entry): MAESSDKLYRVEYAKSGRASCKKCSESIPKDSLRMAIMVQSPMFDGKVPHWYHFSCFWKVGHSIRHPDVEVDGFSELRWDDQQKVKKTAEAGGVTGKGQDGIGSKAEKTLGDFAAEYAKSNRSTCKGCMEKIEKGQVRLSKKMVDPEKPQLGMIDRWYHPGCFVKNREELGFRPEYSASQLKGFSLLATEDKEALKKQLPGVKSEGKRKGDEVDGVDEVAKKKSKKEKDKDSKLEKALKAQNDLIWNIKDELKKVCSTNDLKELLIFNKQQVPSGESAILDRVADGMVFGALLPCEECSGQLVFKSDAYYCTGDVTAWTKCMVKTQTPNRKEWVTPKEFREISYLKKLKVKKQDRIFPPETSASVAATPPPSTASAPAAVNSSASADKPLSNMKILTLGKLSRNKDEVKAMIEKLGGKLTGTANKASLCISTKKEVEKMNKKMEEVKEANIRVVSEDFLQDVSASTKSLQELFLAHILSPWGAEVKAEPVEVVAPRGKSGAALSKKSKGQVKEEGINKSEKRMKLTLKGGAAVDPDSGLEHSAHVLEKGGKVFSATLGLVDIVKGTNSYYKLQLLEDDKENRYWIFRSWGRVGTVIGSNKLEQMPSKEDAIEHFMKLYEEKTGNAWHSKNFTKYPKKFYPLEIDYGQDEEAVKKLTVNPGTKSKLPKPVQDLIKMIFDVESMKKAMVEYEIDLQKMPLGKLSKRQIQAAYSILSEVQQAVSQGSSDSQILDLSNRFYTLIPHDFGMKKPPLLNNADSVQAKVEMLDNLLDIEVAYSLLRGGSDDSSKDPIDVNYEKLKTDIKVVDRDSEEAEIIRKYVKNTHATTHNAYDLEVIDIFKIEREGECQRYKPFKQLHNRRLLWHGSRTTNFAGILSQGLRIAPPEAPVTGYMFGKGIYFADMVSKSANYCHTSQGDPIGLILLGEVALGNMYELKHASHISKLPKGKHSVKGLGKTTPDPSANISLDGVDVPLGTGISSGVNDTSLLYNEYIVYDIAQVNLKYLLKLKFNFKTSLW
Consider `O=C(NCC(F)F)c1ccc(N2CCC(N3CCC(c4cc5cccc(F)c5c(=O)[nH]4)C3)CC2)c(F)n1` (single isomer, unassigned) [Compound 390b], for which the Selectivity result was “++ (++ indicates a value of 50 to less than 100)”.
For `CNC(=O)c1ncc(N2CCC(N3CCC(c4cc5ccc(F)cc5c(=O)[nH]4)C3)CC2)cc1F` (single isomer, unassigned) [Compound 395a], the Selectivity result is reported as “+ (+ indicates a value of 10 to less than 50)”.
`CNC(=O)c1ncc(N2CCC(N3CCC(c4cc5ccc(F)cc5c(=O)[nH]4)C3)CC2)cc1F` (single isomer, unassigned) [Compound 395b]: the Selectivity entry is recorded as “++ (++ indicates a value of 50 to less than 100)”.
With `CNC(=O)c1ccc(N2CCC(N3CCC(c4cc5ccc(F)cc5c(=O)[nH]4)C3)CC2)c(C#N)n1` (single isomer, unassigned) [Compound 396a], the Selectivity result is “+++ (+++ indicate a value of at least 100)”.
As to `CNC(=O)c1ccc(N2CCC(N3CCC(c4cc5ccc(F)cc5c(=O)[nH]4)C3)CC2)c(C#N)n1` (single isomer, unassigned) [Compound 396b], the Selectivity result is “+++ (+++ indicate a value of at least 100)”.
On the same count and under the same terms, under `N#Cc1nc(C(=O)NC2CC2)ccc1N1CCC(N2CCC(c3cc4ccc(F)cc4c(=O)[nH]3)C2)CC1` (single isomer, unassigned) [Compound 397a] stands “+++ (+++ indicate a value of at least 100)”; under `N#Cc1nc(C(=O)NC2CC2)ccc1N1CCC(N2CCC(c3cc4ccc(F)cc4c(=O)[nH]3)C2)CC1` (single isomer, unassigned) [Compound 397b], “+++ (+++ indicate a value of at least 100)”; under `CCc1ccc(C2CCN(C3CCN(c4ccc(C(=O)NCC(F)F)nc4F)CC3)C2)[nH]c1=O` (single isomer, unassigned) [Compound 398a], “+++ (+++ indicate a value of at least 100)”.
As for `CCc1ccc(C2CCN(C3CCN(c4ccc(C(=O)NCC(F)F)nc4F)CC3)C2)[nH]c1=O` (single isomer, unassigned) [Compound 398b], the Selectivity result is recorded as “+++ (+++ indicate a value of at least 100)”.
As for `O=C(NCC(F)F)c1ccc(N2CCC(N3CCC(c4cc5ccc(F)cc5c(=O)[nH]4)C3)CC2)c(F)n1` (single isomer, unassigned) [Compound 399a], the Selectivity entry is recorded as “+++ (+++ indicate a value of at least 100)”.

Staying with this experiment, now noted: read-out: PARP1 HTRF; binned Kd, probe displacement HTRF.
Turning to `O=C(NCC(F)F)c1ccc(N2CCC(N3CCC(c4cc5cccc(F)c5c(=O)[nH]4)C3)CC2)c(F)n1` (single isomer, unassigned) [Compound 390b], the Kd was less than 0.01 µM.
Same read-out and setting: for `CNC(=O)c1ncc(N2CCC(N3CCC(c4cc5ccc(F)cc5c(=O)[nH]4)C3)CC2)cc1F` (single isomer, unassigned) [Compound 395a] the value was less than 0.01 µM; for `CNC(=O)c1ncc(N2CCC(N3CCC(c4cc5ccc(F)cc5c(=O)[nH]4)C3)CC2)cc1F` (single isomer, unassigned) [Compound 395b], less than 0.01 µM; for `CNC(=O)c1ccc(N2CCC(N3CCC(c4cc5ccc(F)cc5c(=O)[nH]4)C3)CC2)c(C#N)n1` (single isomer, unassigned) [Compound 396a], less than 0.01 µM.
For the compound `CNC(=O)c1ccc(N2CCC(N3CCC(c4cc5ccc(F)cc5c(=O)[nH]4)C3)CC2)c(C#N)n1` (single isomer, unassigned) [Compound 396b], the Kd is less than 0.01 µM.
`N#Cc1nc(C(=O)NC2CC2)ccc1N1CCC(N2CCC(c3cc4ccc(F)cc4c(=O)[nH]3)C2)CC1` (single isomer, unassigned) [Compound 397a]: the Kd is less than 0.01 µM.
`N#Cc1nc(C(=O)NC2CC2)ccc1N1CCC(N2CCC(c3cc4ccc(F)cc4c(=O)[nH]3)C2)CC1` (single isomer, unassigned) [Compound 397b]: the Kd was less than 0.01 µM.
As for `CCc1ccc(C2CCN(C3CCN(c4ccc(C(=O)NCC(F)F)nc4F)CC3)C2)[nH]c1=O` (single isomer, unassigned) [Compound 398a], the Kd was less than 0.01 µM.
Turning to `CCc1ccc(C2CCN(C3CCN(c4ccc(C(=O)NCC(F)F)nc4F)CC3)C2)[nH]c1=O` (single isomer, unassigned) [Compound 398b], the Kd was less than 0.01 µM.
On to `O=C(NCC(F)F)c1ccc(N2CCC(N3CCC(c4cc5ccc(F)cc5c(=O)[nH]4)C3)CC2)c(F)n1` (single isomer, unassigned) [Compound 399a], for which the Kd is less than 0.01 µM.

A further experiment concerns the target T1, full length N-terminally FLAG-tagged PARP1. In words: PARP1 biochemical DELFIA assay (auto-PARylation). To be noted: binned IC50, biochemical auto-PARylation assay. On the set-up: recombinant full length human N-terminally FLAG-tagged PARP1.
On to `O=C(NCC(F)F)c1ccc(N2CCC(N3CCC(c4cc5cccc(F)c5c(=O)[nH]4)C3)CC2)c(F)n1` (single isomer, unassigned) [Compound 390b], for which the IC50 was less than 0.01 µM.
Consider `CNC(=O)c1ncc(N2CCC(N3CCC(c4cc5ccc(F)cc5c(=O)[nH]4)C3)CC2)cc1F` (single isomer, unassigned) [Compound 395a], for which the IC50 was less than 0.01 µM.
As for `CNC(=O)c1ncc(N2CCC(N3CCC(c4cc5ccc(F)cc5c(=O)[nH]4)C3)CC2)cc1F` (single isomer, unassigned) [Compound 395b], the IC50 was less than 0.01 µM.
Regarding `CNC(=O)c1ccc(N2CCC(N3CCC(c4cc5ccc(F)cc5c(=O)[nH]4)C3)CC2)c(C#N)n1` (single isomer, unassigned) [Compound 396a], the IC50 was less than 0.01 µM.
Take `CNC(=O)c1ccc(N2CCC(N3CCC(c4cc5ccc(F)cc5c(=O)[nH]4)C3)CC2)c(C#N)n1` (single isomer, unassigned) [Compound 396b]: the IC50 is less than 0.01 µM.
On the same count and under the same terms, for `N#Cc1nc(C(=O)NC2CC2)ccc1N1CCC(N2CCC(c3cc4ccc(F)cc4c(=O)[nH]3)C2)CC1` (single isomer, unassigned) [Compound 397a] the value was less than 0.01 µM; for `N#Cc1nc(C(=O)NC2CC2)ccc1N1CCC(N2CCC(c3cc4ccc(F)cc4c(=O)[nH]3)C2)CC1` (single isomer, unassigned) [Compound 397b], less than 0.01 µM.
Turning to `CCc1ccc(C2CCN(C3CCN(c4ccc(C(=O)NCC(F)F)nc4F)CC3)C2)[nH]c1=O` (single isomer, unassigned) [Compound 398a], the IC50 was less than 0.01 µM.
As to `CCc1ccc(C2CCN(C3CCN(c4ccc(C(=O)NCC(F)F)nc4F)CC3)C2)[nH]c1=O` (single isomer, unassigned) [Compound 398b], the IC50 was less than 0.01 µM.
`O=C(NCC(F)F)c1ccc(N2CCC(N3CCC(c4cc5ccc(F)cc5c(=O)[nH]4)C3)CC2)c(F)n1` (single isomer, unassigned) [Compound 399a]: the IC50 is less than 0.01 µM.

In the next experiment the target is T2, N-terminally FLAG-tagged PARP2 (amino acids 1-583) (Homo sapiens, UniProt Q9UGN5).
T2 construct: N-terminally FLAG-tagged PARP2 (amino acids 1-583)
T2 sequence (Q9UGN5 whole entry, the tested form may be a part): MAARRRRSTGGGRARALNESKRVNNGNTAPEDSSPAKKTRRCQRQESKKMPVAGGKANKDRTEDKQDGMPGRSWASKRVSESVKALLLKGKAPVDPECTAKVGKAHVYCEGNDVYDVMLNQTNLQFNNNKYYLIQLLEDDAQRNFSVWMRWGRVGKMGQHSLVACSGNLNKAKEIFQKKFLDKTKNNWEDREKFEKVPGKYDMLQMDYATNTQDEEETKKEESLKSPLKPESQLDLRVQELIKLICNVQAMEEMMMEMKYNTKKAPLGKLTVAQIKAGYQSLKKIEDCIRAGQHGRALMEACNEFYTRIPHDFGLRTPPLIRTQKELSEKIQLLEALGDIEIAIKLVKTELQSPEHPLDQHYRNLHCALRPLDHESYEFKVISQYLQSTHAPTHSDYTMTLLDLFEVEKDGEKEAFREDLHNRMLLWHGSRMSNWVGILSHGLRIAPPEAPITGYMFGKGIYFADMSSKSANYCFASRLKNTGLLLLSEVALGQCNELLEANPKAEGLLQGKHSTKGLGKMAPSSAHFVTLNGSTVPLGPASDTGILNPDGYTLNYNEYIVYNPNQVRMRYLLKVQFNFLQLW
Put plainly: PARP2 probe displacement HTRF assay. Particulars: binned Kd, probe displacement HTRF. The experiment is classed as binding. How it is done: Data analysis was performed identical as for PARP1.
A general note: TR-FRET usually uses a lanthanide donor and a delayed reading to cut background.
`O=C(NCC(F)F)c1ccc(N2CCC(N3CCC(c4cc5cccc(F)c5c(=O)[nH]4)C3)CC2)c(F)n1` (single isomer, unassigned) [Compound 390b] had a Kd of 0.01 to 0.1 µM.
As for `CNC(=O)c1ncc(N2CCC(N3CCC(c4cc5ccc(F)cc5c(=O)[nH]4)C3)CC2)cc1F` (single isomer, unassigned) [Compound 395a], the Kd was in the range of 0.1 to 1 µM.
As for `CNC(=O)c1ncc(N2CCC(N3CCC(c4cc5ccc(F)cc5c(=O)[nH]4)C3)CC2)cc1F` (single isomer, unassigned) [Compound 395b], the Kd was in the range of 0.01 to 0.1 µM.
The compound `CNC(=O)c1ccc(N2CCC(N3CCC(c4cc5ccc(F)cc5c(=O)[nH]4)C3)CC2)c(C#N)n1` (single isomer, unassigned) [Compound 396a] returned a Kd of 0.1 to 1 µM.
Compound `CNC(=O)c1ccc(N2CCC(N3CCC(c4cc5ccc(F)cc5c(=O)[nH]4)C3)CC2)c(C#N)n1` (single isomer, unassigned) [Compound 396b] yielded a Kd of 0.1 to 1 µM.
For the compound `N#Cc1nc(C(=O)NC2CC2)ccc1N1CCC(N2CCC(c3cc4ccc(F)cc4c(=O)[nH]3)C2)CC1` (single isomer, unassigned) [Compound 397a], the Kd was in the range of 0.1 to 1 µM.
With `N#Cc1nc(C(=O)NC2CC2)ccc1N1CCC(N2CCC(c3cc4ccc(F)cc4c(=O)[nH]3)C2)CC1` (single isomer, unassigned) [Compound 397b], the Kd was 0.01 to 0.1 µM.
`CCc1ccc(C2CCN(C3CCN(c4ccc(C(=O)NCC(F)F)nc4F)CC3)C2)[nH]c1=O` (single isomer, unassigned) [Compound 398a] gave a Kd of 1 to 10 µM.
For `CCc1ccc(C2CCN(C3CCN(c4ccc(C(=O)NCC(F)F)nc4F)CC3)C2)[nH]c1=O` (single isomer, unassigned) [Compound 398b], the Kd was in the range of 0.1 to 1 µM.
`O=C(NCC(F)F)c1ccc(N2CCC(N3CCC(c4cc5ccc(F)cc5c(=O)[nH]4)C3)CC2)c(F)n1` (single isomer, unassigned) [Compound 399a] showed a Kd of 0.1 to 1 µM.
